# Results from ChEMBL document CHEMBL5523759, “Discovery of Novel HDAC3 Inhibitors with PD-L1 Downregulating/Degrading and Antitumor Immune Effects” (J Med Chem, 2024).
# Active and inactive are the calls of the source. The rule behind the calls is not given here.
# Legend:
# Jurkat = assay: Antiproliferative activity against human Jurkat T cells assessed as reduction in cell viability measured for 48 hrs by CCK-8 assay; assay type: functional, cell-based
# Histone deacetylase 3 = Histone deacetylase 3 (Homo sapiens, UniProt O15379); assay: Inhibition of human recombinant HDAC3 using Ac-Leu-Gly-Lys (Ac)-AMC as substrate preincubated with compound for 10 mins followed by substrate addition and measured after 45 mins by TECAN microtiter plate reader analysis
# Chain of Histone deacetylase 3 (O15379 whole entry): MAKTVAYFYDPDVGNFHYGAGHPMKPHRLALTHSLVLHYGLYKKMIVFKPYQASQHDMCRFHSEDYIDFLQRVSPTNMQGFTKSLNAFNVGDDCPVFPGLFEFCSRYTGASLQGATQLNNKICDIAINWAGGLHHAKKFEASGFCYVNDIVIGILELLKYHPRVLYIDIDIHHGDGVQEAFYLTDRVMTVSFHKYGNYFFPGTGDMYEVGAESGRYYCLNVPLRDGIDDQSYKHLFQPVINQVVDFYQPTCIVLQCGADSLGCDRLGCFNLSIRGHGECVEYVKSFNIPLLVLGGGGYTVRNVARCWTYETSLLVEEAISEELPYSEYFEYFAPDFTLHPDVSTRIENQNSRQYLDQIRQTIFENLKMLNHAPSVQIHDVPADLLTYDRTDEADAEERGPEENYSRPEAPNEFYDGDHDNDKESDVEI
# Histone deacetylase 1 = Histone deacetylase 1 (Homo sapiens, UniProt Q13547); assay: Inhibition of human recombinant HDAC1 using Ac-Leu-Gly-Lys (Ac)-AMC as substrate preincubated with compound for 10 mins followed by substrate addition and measured after 45 mins by TECAN microtiter plate reader analysis
# Chain of Histone deacetylase 1 (Q13547 whole entry): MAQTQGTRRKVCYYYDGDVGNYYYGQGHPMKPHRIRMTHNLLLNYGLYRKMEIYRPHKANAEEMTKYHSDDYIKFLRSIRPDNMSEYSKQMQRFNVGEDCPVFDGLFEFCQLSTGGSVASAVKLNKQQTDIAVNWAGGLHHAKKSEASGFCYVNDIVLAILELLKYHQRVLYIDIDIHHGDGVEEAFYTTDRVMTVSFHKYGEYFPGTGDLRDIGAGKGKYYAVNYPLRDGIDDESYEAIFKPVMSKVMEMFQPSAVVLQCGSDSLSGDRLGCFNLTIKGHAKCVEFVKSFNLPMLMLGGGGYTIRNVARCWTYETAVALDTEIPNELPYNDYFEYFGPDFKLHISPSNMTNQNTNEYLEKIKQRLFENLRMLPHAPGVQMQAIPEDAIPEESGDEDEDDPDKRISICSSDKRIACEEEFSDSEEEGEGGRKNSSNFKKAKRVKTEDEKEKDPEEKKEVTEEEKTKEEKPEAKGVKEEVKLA
# Histone deacetylase 8 = biological target: T1, Histone deacetylase 8 (Homo sapiens, UniProt Q9BY41); assay: Inhibition of human recombinant HDAC8 using Ac-Leu-Gly-Lys (Tfa)-AMC as substrate preincubated with compound for 10 mins followed by substrate addition and measured after 45 mins by TECAN microtiter plate reader analysis
# T1 sequence (Q9BY41 whole entry): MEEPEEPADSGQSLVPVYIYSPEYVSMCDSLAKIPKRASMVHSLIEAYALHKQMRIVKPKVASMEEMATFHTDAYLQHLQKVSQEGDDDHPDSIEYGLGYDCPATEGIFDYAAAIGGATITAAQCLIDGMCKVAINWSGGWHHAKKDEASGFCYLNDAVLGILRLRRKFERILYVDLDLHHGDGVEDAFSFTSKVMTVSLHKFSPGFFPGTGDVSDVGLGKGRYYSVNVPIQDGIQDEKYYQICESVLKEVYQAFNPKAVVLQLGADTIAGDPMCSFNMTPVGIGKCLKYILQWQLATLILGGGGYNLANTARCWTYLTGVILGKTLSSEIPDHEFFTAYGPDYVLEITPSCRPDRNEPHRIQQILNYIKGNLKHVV
# HCT-116 = assay: cells; settings: Homo sapiens, HCT-116, 48 h
# Description: Antiproliferative activity against human HCT-116 cells assessed as reduction in cell viability measured for 48 hrs by MTT assay
# [1] = biological target: T2, Protein deacetylase HDAC6 (Homo sapiens, UniProt Q9UBN7); assay: Inhibition of human recombinant HDAC6 using Ac-Leu-Gly-Lys (Ac)-AMC as substrate preincubated with compound for 10 mins followed by substrate addition and measured after 45 mins by TECAN microtiter plate reader analysis
# T2 sequence (Q9UBN7 whole entry): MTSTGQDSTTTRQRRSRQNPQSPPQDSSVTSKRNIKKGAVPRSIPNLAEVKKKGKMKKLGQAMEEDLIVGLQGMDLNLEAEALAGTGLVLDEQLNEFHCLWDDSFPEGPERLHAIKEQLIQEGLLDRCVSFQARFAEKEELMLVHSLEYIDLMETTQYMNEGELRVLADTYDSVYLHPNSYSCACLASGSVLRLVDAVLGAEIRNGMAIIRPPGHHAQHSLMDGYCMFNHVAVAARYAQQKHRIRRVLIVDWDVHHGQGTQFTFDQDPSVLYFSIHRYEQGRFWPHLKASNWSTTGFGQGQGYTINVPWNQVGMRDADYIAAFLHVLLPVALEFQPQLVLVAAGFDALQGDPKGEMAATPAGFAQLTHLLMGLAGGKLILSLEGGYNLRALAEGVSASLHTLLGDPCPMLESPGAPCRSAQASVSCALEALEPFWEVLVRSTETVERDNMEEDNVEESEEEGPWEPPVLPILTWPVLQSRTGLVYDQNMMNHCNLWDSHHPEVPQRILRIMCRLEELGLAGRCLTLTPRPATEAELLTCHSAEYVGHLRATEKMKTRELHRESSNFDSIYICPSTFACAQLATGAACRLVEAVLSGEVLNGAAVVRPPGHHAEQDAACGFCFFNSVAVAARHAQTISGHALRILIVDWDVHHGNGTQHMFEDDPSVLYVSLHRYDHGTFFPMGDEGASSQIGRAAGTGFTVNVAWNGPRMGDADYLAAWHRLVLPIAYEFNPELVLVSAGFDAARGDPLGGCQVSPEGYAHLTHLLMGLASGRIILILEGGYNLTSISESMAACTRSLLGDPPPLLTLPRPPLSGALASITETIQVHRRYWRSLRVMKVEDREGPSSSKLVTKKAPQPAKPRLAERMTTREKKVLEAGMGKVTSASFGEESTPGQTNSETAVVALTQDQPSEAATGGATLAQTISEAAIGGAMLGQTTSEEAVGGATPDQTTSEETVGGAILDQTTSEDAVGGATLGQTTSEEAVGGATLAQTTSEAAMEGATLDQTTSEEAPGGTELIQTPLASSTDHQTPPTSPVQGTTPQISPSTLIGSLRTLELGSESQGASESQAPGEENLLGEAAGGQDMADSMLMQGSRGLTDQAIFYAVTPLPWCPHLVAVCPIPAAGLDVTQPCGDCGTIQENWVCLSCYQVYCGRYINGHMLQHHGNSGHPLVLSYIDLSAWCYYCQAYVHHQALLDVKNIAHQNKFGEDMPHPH
# MCF7 = assay: cells; settings: Homo sapiens, MCF7, 48 h
# Description: Antiproliferative activity against human MCF7 cells assessed as reduction in cell viability measured for 48 hrs by MTT assay
# HepG2 = assay: Antiproliferative activity against human HepG2 cells assessed as reduction in cell viability measured for 48 hrs by MTT assay; assay type: functional, cell-based; settings: HepG2, 48 h
# B16-F10 [2] = assay: Antiproliferative activity against mouse B16-F10 cells assessed as reduction in cell viability measured for 48 hrs by MTT assay; assay type: functional, cell-based; settings: B16-F10, 48 h
# Histone deacetylase 7 = biological target: T3, Histone deacetylase 7 (Homo sapiens, UniProt Q8WUI4); assay: Inhibition of human recombinant HDAC7 using Ac-Leu-Gly-Lys (Tfa)-AMC as substrate preincubated with compound for 10 mins followed by substrate addition and measured after 45 mins by TECAN microtiter plate reader analysis
# T3 sequence (Q8WUI4 whole entry): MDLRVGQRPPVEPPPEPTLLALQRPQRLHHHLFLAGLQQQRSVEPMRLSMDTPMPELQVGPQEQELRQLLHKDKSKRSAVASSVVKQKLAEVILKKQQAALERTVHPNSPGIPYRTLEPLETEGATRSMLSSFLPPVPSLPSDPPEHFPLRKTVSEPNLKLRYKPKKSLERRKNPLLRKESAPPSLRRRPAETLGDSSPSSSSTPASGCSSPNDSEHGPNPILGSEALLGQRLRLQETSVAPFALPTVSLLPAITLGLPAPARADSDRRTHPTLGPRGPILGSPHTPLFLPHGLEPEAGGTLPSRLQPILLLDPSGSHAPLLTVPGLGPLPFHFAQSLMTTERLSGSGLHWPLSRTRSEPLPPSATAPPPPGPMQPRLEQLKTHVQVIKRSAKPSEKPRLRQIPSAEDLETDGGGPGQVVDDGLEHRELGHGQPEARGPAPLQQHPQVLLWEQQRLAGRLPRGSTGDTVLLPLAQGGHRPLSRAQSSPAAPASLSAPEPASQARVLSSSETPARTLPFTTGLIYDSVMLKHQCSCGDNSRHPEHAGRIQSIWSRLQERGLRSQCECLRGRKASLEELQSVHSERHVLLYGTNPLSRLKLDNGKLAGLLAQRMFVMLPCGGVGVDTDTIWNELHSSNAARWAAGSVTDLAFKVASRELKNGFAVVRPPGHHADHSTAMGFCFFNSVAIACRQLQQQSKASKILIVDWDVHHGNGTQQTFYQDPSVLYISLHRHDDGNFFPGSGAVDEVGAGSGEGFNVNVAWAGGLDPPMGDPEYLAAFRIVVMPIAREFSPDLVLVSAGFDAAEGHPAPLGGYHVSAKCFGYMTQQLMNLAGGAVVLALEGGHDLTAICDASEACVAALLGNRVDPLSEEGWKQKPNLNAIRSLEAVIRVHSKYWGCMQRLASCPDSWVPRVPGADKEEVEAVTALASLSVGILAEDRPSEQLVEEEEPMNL
# B16-F10 [3] = assay: Antitumor immunity against mouse B16-F10 cells implanted in C57BL/6 mouse model assessed as increase in CD3+ CD4+ T cells at 25 mg/kg, po administered for 9 days (reference value: 1.50%); assay type: functional; settings: time 9 day
# B16-F10 [4] = assay: Antitumor immunity against mouse B16-F10 cells implanted in C57BL/6 mouse model assessed as increase in CD3+ CD8+ T cells at 25 mg/kg, po administered for 9 days (reference value: 1.01%); assay type: functional; settings: time 9 day
# B16-F10 [5] = assay: Antitumor activity against mouse B16-F10 cells implanted in C57BL/6 mouse model assessed as tumor growth inhibition at 25 mg/kg, IG administered for 9 days; assay type: functional; settings: B16-F10, po, 216 h, time 9 day, read-out: TGI
# B16-F10 [6] = assay: Antitumor activity against mouse B16-F10 cells implanted in C57BL/6 mouse model assessed as upregulation of Ac-H3 expression at 25 mg/kg, po administered for 9 days by Western blot analysis; assay type: functional, organism-based; settings: time 9.0 day
# B16-F10 [7] = assay: Antitumor activity against mouse B16-F10 cells implanted in C57BL/6 mouse model assessed as increase in Ac-H3 expression in tumor at 25 mg/kg, po administered for 9 days by Western blot analysis; assay type: functional, organism-based; settings: time 9.0 day
smiles,measurement,setting,value
CCCNNC(=O)CCNC(=O)c1ncc(CNc2ccccc2)s1,IC50,Jurkat,4.77 µM
CCCNNC(=O)CCCNC(=O)c1ncc(CNc2ccccc2)s1,IC50,Jurkat,4.88 µM
Nc1ccccc1NC(=O)CCCNC(=O)c1ncc(CNc2ccccc2)s1,IC50,Jurkat,0.56 µM
Nc1ccccc1NC(=O)CCCCCC(=O)Nc1ccc(-c2ncc(CNc3ccccc3)s2)cc1,IC50,Histone deacetylase 3,0.15 µM
same,IC50,Jurkat,0.17 µM
same,IC50,Histone deacetylase 1,0.34 µM
same,IC50,Histone deacetylase 8,> 10 µM
same,IC50,HCT-116,6.58 µM
same,IC50,[1],7.72 µM
same,IC50,MCF7,7.88 µM
same,IC50,HepG2,1.59 µM
same,IC50,B16-F10 [2],7.2 µM
same,IC50,Histone deacetylase 7,> 10 µM
Nc1ccccc1NC(=O)CCCCNC(=O)c1ncc(CNc2ccccc2)s1,IC50,Jurkat,0.95 µM
Cc1c(COc2cc(OCc3cccc(C#N)c3)c(CNC(C)(C)C(=O)O)cc2Cl)cccc1-c1ccccc1,Activity,B16-F10 [3],3.58%
same,Activity,B16-F10 [4],3.28%
same,inhibition in vivo at 25 mg/kg,B16-F10 [5],67%
same,Activity,B16-F10 [6],inactive
same,Activity,B16-F10 [7],inactive
Nc1ccccc1NC(=O)CCCC(=O)Nc1ccc(-c2ncc(CNc3ccccc3)s2)cc1,IC50,Jurkat,1.02 µM
Nc1ccccc1NC(=O)/C=C/c1ccc(CNC(=O)c2ccc(-c3ncc(CNc4ccccc4)s3)cc2)cc1,IC50,Histone deacetylase 3,0.14 µM
same,IC50,Jurkat,0.1 µM
same,IC50,Histone deacetylase 1,0.72 µM
same,IC50,Histone deacetylase 8,9.08 µM
same,IC50,HCT-116,> 10 µM
same,IC50,[1],> 10 µM
same,IC50,MCF7,4.44 µM
same,IC50,HepG2,0.74 µM
same,IC50,B16-F10 [2],8.94 µM
same,IC50,Histone deacetylase 7,> 10 µM
Nc1ccccc1NC(=O)c1ccc(NC(=O)c2ccc(-c3ncc(CNc4ccccc4)s3)cc2)cc1,IC50,Histone deacetylase 3,0.094 µM
same,IC50,Jurkat,0.07 µM
same,IC50,Histone deacetylase 1,0.64 µM
same,IC50,Histone deacetylase 8,> 10 µM
same,IC50,HCT-116,1.05 µM
same,IC50,[1],9.1 µM
same,IC50,MCF7,3.19 µM
same,IC50,HepG2,> 10 µM
same,IC50,B16-F10 [2],1.6 µM
same,IC50,Histone deacetylase 7,> 10 µM
Nc1ccccc1NC(=O)CCCCC(=O)Nc1ccc(-c2ncc(CNc3ccccc3)s2)cc1,IC50,Jurkat,0.67 µM
Nc1ccccc1NC(=O)CNC(=O)c1ncc(CNc2ccccc2)s1,IC50,Jurkat,> 10 µM
CCCNNC(=O)CNC(=O)c1ncc(CNc2ccccc2)s1,IC50,Jurkat,> 10 µM
CCCNNC(=O)c1ncc(CNc2ccccc2)s1,IC50,Jurkat,> 10 µM
CCCNNC(=O)c1ccc(NC(=O)c2ncc(CNc3ccccc3)s2)cc1,IC50,Jurkat,0.55 µM
Nc1ccccc1NC(=O)CCNC(=O)c1ncc(CNc2ccccc2)s1,IC50,Jurkat,5.15 µM
CCCNNC(=O)CCCCCCNC(=O)c1ncc(CNc2ccccc2)s1,IC50,Jurkat,1.51 µM
Nc1ccccc1NC(=O)c1ccc(CNC(=O)c2ccc(-c3ncc(CNc4ccccc4)s3)cc2)cc1,IC50,Histone deacetylase 3,0.14 µM
same,IC50,Jurkat,0.08 µM
same,IC50,Histone deacetylase 1,0.39 µM
same,IC50,Histone deacetylase 8,> 10 µM
same,IC50,HCT-116,0.92 µM
same,IC50,[1],8.31 µM
same,IC50,MCF7,4.24 µM
same,IC50,HepG2,0.37 µM
same,IC50,B16-F10 [2],2.98 µM
same,IC50,Histone deacetylase 7,> 10 µM
CCCNNC(=O)CCCCNC(=O)c1ncc(CNc2ccccc2)s1,IC50,Jurkat,1.18 µM
Nc1ccccc1NC(=O)c1ncc(CNc2ccccc2)s1,IC50,Jurkat,0.4 µM
Nc1ccccc1NC(=O)CCCCCCNC(=O)c1ncc(CNc2ccccc2)s1,IC50,Jurkat,0.45 µM
Nc1ccccc1NC(=O)CCC(=O)Nc1ccc(-c2ncc(CNc3ccccc3)s2)cc1,IC50,Jurkat,> 10 µM
Nc1ccccc1NC(=O)c1ccc(CNC(=O)c2ncc(CNc3ccccc3)s2)cc1,IC50,Jurkat,0.24 µM
same,IC50,Histone deacetylase 1,0.23 µM
same,IC50,Histone deacetylase 8,> 10 µM
same,IC50,HCT-116,1.59 µM
same,IC50,[1],> 10 µM
same,IC50,MCF7,> 10 µM
same,IC50,HepG2,0.51 µM
same,IC50,B16-F10 [2],3.22 µM
same,IC50,Histone deacetylase 7,> 10 µM
Nc1ccccc1NC(=O)CC(=O)Nc1ccc(-c2ncc(CNc3ccccc3)s2)cc1,IC50,Jurkat,> 1.22 µM
Nc1ccccc1NC(=O)/C=C/c1ccc(CNC(=O)c2ncc(CNc3ccccc3)s2)cc1,IC50,Jurkat,0.39 µM
Nc1ccccc1NC(=O)c1ccc(NC(=O)c2ncc(CNc3ccccc3)s2)cc1,IC50,Jurkat,2.52 µM
CCCNNC(=O)CCCCCNC(=O)c1ncc(CNc2ccccc2)s1,IC50,Jurkat,> 10 µM
Nc1ccccc1NC(=O)/C=C/c1ccc(-c2ncc(CNc3ccccc3)s2)cc1,IC50,Histone deacetylase 3,0.11 µM
same,IC50,Jurkat,0.2 µM
same,IC50,Histone deacetylase 1,0.31 µM
same,IC50,Histone deacetylase 8,> 10 µM
same,IC50,HCT-116,7.45 µM
same,IC50,[1],8.01 µM
same,IC50,MCF7,4.9 µM
same,IC50,HepG2,0.9 µM
same,IC50,B16-F10 [2],3.49 µM
same,IC50,Histone deacetylase 7,> 10 µM
Nc1ccccc1NC(=O)CCCCCNC(=O)c1ncc(CNc2ccccc2)s1,IC50,Jurkat,1.06 µM
Nc1ccccc1NC(=O)CCCCCCC(=O)Nc1ccc(-c2ncc(CNc3ccccc3)s2)cc1,IC50,Jurkat,0.29 µM
